We go through seven substances from patent publication US11505576B2, “Polypeptides based on a scaffold” (AFFIBODY AB, priority 2018, dated 2022).

By Kd is commonly meant the equilibrium constant for the complex coming apart.

Data set [1] is described as follows: Circular dichroism spectroscopy analysis (CD spectra, variable temperature measurement, refolding). The format is physicochemical. The following applies: for Tm: Table 7, MGSSHHHHHHGSS-[Y#####]-A. The procedure, abridged: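 Y variants at 0.5 mg/ml in PBS were scanned from 250 to 195 nm at 20° C. in a 1 mm cell. Tm came from the 221 nm signal during heating from 20 to 90° C. at 5° C./min, and a second 20° C. spectrum after heating assessed refolding. Selected IL-6 binders were also recorded at 60, 70, 80 and 90° C.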
(CD spectra are sensitive to the conformation of chiral molecules.)

The target in data set [2] is C4. The data set is described as follows: Kinetic analysis using surface plasmon resonance (Biacore T200), immobilized C4. The format is binding. The conditions noted are these: Table 7; MGSSHHHHHHGSS-[Y#####]-A. The protocol:
(§1) Kinetic constants (ka and kd) and affinities (KD) were determined for His6-tagged Y variants using a Biacore T200 instrument (GE Healthcare). Target proteins C4, IL-6 and insulin, respectively, were immobilized in separate flow cells on the carboxylated dextran layer of different CM5 chip surfaces (GE Healthcare). Immobilization was performed using amine coupling chemistry according to the manufacturer's protocol and PBS pH 7.4 supplemented with 0.1 Tween20 (PBST 0.1%) as running buffer. The ligand immobilization levels on the surfaces were 3280-8830 RU for C4, 495-1184 RU for IL-6, and 270-282 RU for insulin. One flow cell surface on each chip was activated and deactivated for use as blank during analyte injections. In the kinetic experiment, PBST 0.1% was used as running buffer at a flow rate of 30 μl/min. The analytes, i.e. Y variants, were each diluted in PBST 0.1 buffer at concentrations of 1000, 500, 100, 50 and 10 nM and injected for 5 min, followed by dissociation in running buffer for 3 min. After dissociation, the surfaces were regenerated with one injection of 30 μl 10 mM HCl. Kinetic constants were calculated from the sensorgrams using the Langmuir 1:1 model of Biacore T200 Evaluation software 2.0 (GE Healthcare).
(§2) Produced Y variants were subjected to CD and SPR analyses according to the methods described in Example 1.
The Y variants were cloned, produced and characterized according to the general methods described in Example 1. Produced Y variants with point mutations and/or N-terminal or C-terminal extensions were subjected to CD and SPR analyses as described in Example 1.
(§3) Produced Y variants were subjected to CD and SPR analyses according to the methods described in Example 1. In addition, CD spectra of selected IL-6 binding variants were also recorded at 60, 70, 80 and 90° C.
(SPR reads the build-up and loss of mass on a sensor chip optically.)

The nature of data set [3]: Fraction of soluble product on expression in E. coli, estimated from SDS-PAGE. The format is physicochemical. The conditions noted are these: Table 7; Ylib002Naive.I selection; MGSSHHHHHHGSS-[Y#####]-A. The procedure, abridged: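 E. coli T7E2 cultures with 50 μg/ml kanamycin were grown at 30-37 °C (EnPresso), induced with 0.5 mM IPTG at OD600 ~10 and harvested after 16 h. Alternatively, cultures were grown at 37 °C in TSB-YE, induced with 0.2 mM IPTG at OD600=2 and harvested after 5 h. Soluble and insoluble fractions were estimated by SDS-PAGE.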

Data set [4] deals with T1, IL-6 (Homo sapiens, UniProt P05231).
T1 construct: purchased R&D Systems 206-IL-200/CF
T1 sequence (P05231 30-212): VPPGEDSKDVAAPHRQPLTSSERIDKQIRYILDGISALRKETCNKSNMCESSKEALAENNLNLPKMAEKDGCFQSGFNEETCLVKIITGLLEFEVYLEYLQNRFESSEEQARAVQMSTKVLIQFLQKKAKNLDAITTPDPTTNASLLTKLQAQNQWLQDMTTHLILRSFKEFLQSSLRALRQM
Kind of data set: Kinetic analysis using surface plasmon resonance (Biacore T200), immobilized IL-6. The format is binding. The conditions noted are these: Table 7; MGSSHHHHHHGSS-[Y#####]-A. On the procedure:
as §1, §2, §3
The Y variants were cloned, produced and characterized according to the general methods described in Example 1. Produced Y variants with point mutations were subjected to CD and SPR analyses as described in Example 1. In addition, CD spectra of the IL-6 binding variants were also recorded at 60, 70, 80 and 90° C.

For “Y00792: C4 binding Y variant from Ylib002Naive.I, SEQ ID NO:32 (LAEAKEAAIAELDSKGVGADLIKKIQQASSVEGVQFWKQEILAQLPA; Engineered C4 binding Y variant)”, in data set [1], the Tm amounted to 58 °C. In data set [2], binding was put at a Kd of 62 nM, the ka was determined as 27000 M⁻¹ s⁻¹ and the kd was 0.0017 s⁻¹. For the same substance, in data set [3], the Estimated soluble fraction is given as 100%.
With “Y02303: C4 binding Y variant from Ylib002Naive.I, SEQ ID NO:34 (LAEAKEAAIAELDSKGVGAEEIKWIQNAWSVEGVQIMKQQILAELPA; Engineered C4 binding Y variant)”, in data set [1], the Tm came out at 43 °C. Further, in data set [2], the Kd came out at 2200 nM, the ka was determined as 96000 M⁻¹ s⁻¹ and the kd is 0.21 s⁻¹. Besides, the Estimated soluble fraction in data set [3] is listed as 100%.
The matching figures for “Y02309: C4 binding Y variant from Ylib002Naive.I, SEQ ID NO:35 (LAEAKEAAIAELDSKGVGADLIKKIQKAESVEGVQFWKQEILATLPA; Engineered C4 binding Y variant)”: 56 °C, 70 nM, 36000 M⁻¹ s⁻¹, 0.0025 s⁻¹ and 100%.
Take “Y02330: C4 binding Y variant from Ylib002Naive.I, SEQ ID NO:37 (LAEAKEAAIAELDSKGVGAELIKKIQHAESVEGVQFWKQEILAYLPA; Engineered C4 binding Y variant)”: the Tm in data set [1] is 49 °C. In data set [2], this substance registered a Kd of 48 nM, a ka of 96000 M⁻¹ s⁻¹ and a kd of 0.0046 s⁻¹. Moreover, the Estimated soluble fraction in data set [3] was 100%.
For “Y02337: C4 binding Y variant from Ylib002Naive.I, SEQ ID NO:38 (LAEAKEAAIAELDSKGVGAAEIKWIQHASTVEGVQGRKQQILAELPA; Engineered C4 binding Y variant)”, the Tm in data set [1] turned out to be 31 °C. In data set [2], this substance registered an equilibrium dissociation constant (Kd) of 1900 nM, a ka of 420000 M⁻¹ s⁻¹ and a kd of 0.81 s⁻¹. Besides, the Estimated soluble fraction in data set [3] is 100%.
Taken in the same sequence, the figures for “Y02358: C4 binding Y variant from Ylib002Naive.I, SEQ ID NO:39 (LAEAKEAAIAELDSKGVGADDIKLIQDAPSVEGVQEIKQFILAQLPA; Engineered C4 binding Y variant)” were 51 °C, 16 nM, 90000 M⁻¹ s⁻¹, 0.0014 s⁻¹ and 100%.
For “Y02444: IL-6 binding Y variant from Ylib002Naive.I, SEQ ID NO:75 (LAEAKEAAIAELDSKGVGAVEIKQIQEALLVEIVQLLKQAILAVLPA; Engineered IL-6 binding Y variant)”, in data set [1] (CD spectra recorded at 60, 70, 80 and 90° C.), the “Structure at elevated temperature” value was “partial structure also at temperatures up to 90 °C”. Moreover, in data set [4], the Kd was determined as 61 nM, the ka was determined as 90000 M⁻¹ s⁻¹ and the kd stood at 0.0055 s⁻¹. In addition, in data set [3], the Estimated soluble fraction is recorded as 100%.
